Reference: patent publication US20250280827A1, “An antifungal composition comprising natamycin and at least one insecticide” (priority 2021, published 2025)
Read-outs that look alike come from different tables or passages of the source.

Columns and labels:
Sclerotinia sclerotiorum = experiment: Antifungal effect against Sclerotinia sclerotiorum infection on wounded skin of broad bean pods (rot area, Colby synergy); type: in vivo; conditions: natamycin-insecticide 15-0 ppm
Text: (§1) The Colby equation (Colby, 1967. Weeds 15:20-22) calculates the expected antifungal activity (E in %) of a combination comprising more than one active ingredients:
(§2) wherein X and Y are the observed antifungal activities (in %) of the individual active ingredients x and y, respectively. If the observed antifungal activity (O in %) of the combination exceeds the expected antifungal activity (E in %) of the combination and the synergy factor O/E is thus >1.0, the combined application of the active ingredients leads to a synergistic antifungal effect.
• 1) Control (without natamycin and lambda-cyhalothrin) • 2) Natamycin at a level of 15 ppm • 3) Lambda-cyhalothrin (in the product KARATE ZEON® of Syngenta) at a levels of 0.15 ppm, 0.6 ppm, 3 ppm and 15 ppm • 4) Natamycin at a level of 15 ppm combined with lambda-cyhalothrin at levels of 0.15 ppm, 0.6 ppm, 3 ppm or 15 ppm.
Used pathogen: Sclerotinia sclerotiorum.
Application: The broad bean pods were washed under tap water, and were subsequently surface sterilized by placing them in a 0.1% sodium hypochlorite solution for 5 minutes. The pods were then rinsed with tap water and dried. Transparent plastic containers were prepared by placing a piece of absorbing paper in the container and adding 25 ml of water, one container per treatment was used. The pods were cut in two, and two halve pods were incubated per box. The skin of broad bean pods was damaged with a needle, ø 2 mm and to a depth of about 3 mm into the fruit, with—depending on the size of the pod—2 to 4 wounds per half pod. In total, 6 wounds were incubated per treatment, of which 1 was used as a control. A volume of 20 microliter of a natamycin/insecticide composition, as presented herein above, was applied by pipette to each wound. The treatments were then left to air-dry. Once dried, a mycelium plug of Sclerotinia sclerotiorum was placed upside down on each wound, so that the mycelium was in direct contact with the wound. Per treatment 5 wounds were inoculated with the fungus, while the 6th and last wound was used as negative non-inoculated control. After inoculation, the containers were directly closed with a transparent plastic lid.
All pods were kept at room temperature (20° C.). Wounds of the pods were checked after 30 h of incubation.
Replicates: All treatments for the broad bean pod experiment were performed on two individual pod halves resulting in 5 wounds per treatment, while a sixth wound served as control.
The experiments were performed as described in Example 1.
The experiments were performed as described in Example 1. Assessment of the infection area was 23 h after inoculation. Experiment was performed in 5-fold.
The experiments were performed as described in Example 1. Thiamethoxam belongs to IRAC Group 4. Assessment of the infection area was 31 hours after inoculation. Experiment was performed in 5-fold.
The experiments were performed as described in Example 1. The product SPECTRE® of company (Adama) containing the active ingredient chlorfenapyr belonging to IRAC Group 13 was tested. Assessment of the infection area was 23 hours after inoculation. Experiment was performed in 5-fold.

Fusarium graminerum = type: cell-based; conditions: 6 days after inoculation
Text: as §1, §2
(§3) Agar medium was prepared by mixing in a 100 ml Duran bottle 3.9 g of potato dextrose agar (PDA) from Carl-Roth (Carl-Roth GmbH+Co. KG, Karlsruhe, Germany) with 100 ml deionized water and autoclaving the Duran bottle at 120° C. for 15 minutes. After autoclaving, the solution was cooled by putting it in a 48° C. oven for about two hours. Afterward the semi-liquid PDA solution was carefully mixed with natamycin and/or insecticide dosages as specified in Table 5 showing the interaction results on petri dishes. The medium in the Duran bottle was divided over 5 petri dishes (90×15 mm), 20 ml per petri dish by using 25 ml serological pipets (ROTILABO®; Carl-Roth). Each natamycin and/or insecticide treatment was performed in fivefold.
(§4) Fungal spore suspensions were prepared by drenching a fully grown petri dish with sterile water. The fungus was scraped off and filtered through a Miracloth (pore size: 22-25 μm) (Merck KGaA, Darmstadt, Germany; catalogue number: 475855). The number of spores were counted with a hemocytometer and fungal suspension was adjusted to 10^6 spores per ml. Afterward, 5 μl of prepared spore suspension was pipetted on the center of the agar plate. The plates were incubated at 25° C. Measurement of the fungal growth was done using callipers at different time points. Assessment of the infection area was 6 days after inoculation.
(§5) The insecticide levels and the period after which the assessments were made are presented as specified for the different insecticides are presented in Table 5 below. Synergistic calculation was done using the Colby equation. Experiment was performed in 5-fold.
The experiments were performed as described in Example 3. The product KARATE ZEON® of company Syngenta containing the active ingredient lambda-cyhalothrin belonging to IRAC Group 3 was tested. Assessment of the infection area was 6 days after inoculation. Experiment was performed in 5-fold.

Fusarium culmorum = experiment: Antifungal effect against Fusarium culmorum on PDA petri dishes (fungal growth area, Colby synergy); type: cell-based; conditions: natamycin-insecticide 0.5-0 ppm
Text: as §1, §2, §3, §4, §5
The experiments were performed as described in Example 3. Assessment of the infection area was 6 days after inoculation. Experiment was performed in 5-fold.
The experiments were performed as described in Example 3. The product KARATE ZEON® of company Syngenta containing the active ingredient lambda-cyhalothrin belonging to IRAC Group 3 was tested. Assessment of the infection area was 3 days after inoculation. Experiment was performed in 5-fold.

[1] = 23 h after inoculation, Table 4
[2] = 23 h after inoculation, Table 7
[3] = 23 hours after inoculation, Table 9
[4] = 30 h after inoculation, Table 3
[5] = 31 hours after inoculation, Table 8
[6] = natamycin-insecticide 0.5-0 ppm, Table 5
[7] = natamycin-insecticide 1-0 ppm, Table 10
[8] = 3 days after inoculation, Table 11
[9] = 6 days after inoculation, Table 6

C[C@@H]1C/C=C/C=C/C=C/C=C/[C@H](O[C@@H]2O[C@H](C)[C@@H](O)[C@H](N)[C@@H]2O)C[C@@H]2O[C@](O)(C[C@@H](O)C[C@H]3O[C@@H]3/C=C/C(=O)O1)C[C@H](O)[C@H]2C(=O)O [natamycin]
Avg infected area (Sclerotinia sclerotiorum; [1]): 104.2 mm2
Observed antifungal activity (Sclerotinia sclerotiorum; [1]): 33.5%
Avg infected area (Sclerotinia sclerotiorum; [2]): 99.9 mm2
Observed antifungal activity (Sclerotinia sclerotiorum; [2]): 26.9%
Avg infected area (Sclerotinia sclerotiorum; [3]): 66.2 mm2
Observed antifungal activity (Sclerotinia sclerotiorum; [3]): 41.8%
Avg infected area (Sclerotinia sclerotiorum; [4]): 278.54 mm^2
Observed antifungal activity (Sclerotinia sclerotiorum; [4]): 11.4%
Avg infected area (Sclerotinia sclerotiorum; [5]): 172.7 mm2
Observed antifungal activity (Sclerotinia sclerotiorum; [5]): 33.1%
Avg infected area (Fusarium graminerum; [6]): 1054.4 mm2
Observed antifungal activity (Fusarium graminerum; [6]): 7.2%
Avg infected area (Fusarium graminerum; [7]): 1107.7 mm2
Observed antifungal activity (Fusarium graminerum; [7]): 69.4%
Avg infected area (Fusarium culmorum; [8]): 297.7 mm2
Observed antifungal activity (Fusarium culmorum; [8]): 17.9%
Avg infected area (Fusarium culmorum; [9]): 810.2 mm2
Observed antifungal activity (Fusarium culmorum; [9]): 18.8%
